The subject of one experiment is KK mice. Description: Hypoglycemic effect (glucose lowering rate) in diabetic KK mice. In kind it is in vivo. The conditions noted are these: male KK mice, diet admixture containing 0.03% of the compound, three days, plasma glucose on the 3rd day vs control group; for inhibition in vivo at 0.03 % in diet: Mus musculus, po, 72 h. An excerpt: Six-week-old male KK mice were purchased from CLEA Japan, Inc. and then were fed until 15 to 20 weeks old to develop diabetes. The mice were individually fed during the adaptation period and the test period, and water and feed (FR2, Funabashi Farm) were freely ingested.
At the start of the experiment, after body weight measurement, blood was collected from the tail vein of the mice into a heparin-coated glass tube and centrifuged, and then plasma was separated. The glucose level in the plasma was measured by Glucoloader GXT (A&T Corp.), and individuals having a plasma glucose level of about 350 mg/dl or more were selected. The mice were grouped, each group having 3 to 4 mice, to make the average body weight and the average plasma glucose level similar. Each compound was administered to a compound group with a diet admixture containing 0.03% of the compound. A separate group in which the mice were fed only with diet was a control group.
The experiment period (drug administration period) was three days. The grouping day was the 0th day. On the 3rd day, the body weight was measured and blood was collected from the tail vein to measure the plasma glucose level.
The glucose lowering rate was determined by the following formula. Glucose lowering rate=[(Control group plasma glucose level−Compound-administered group plasma glucose level)/Control group plasma glucose level]×100

The target in experiment [1] is T1, GAL4-PPARγ chimeric receptor (Homo sapiens, UniProt P37231).
T1 construct: expressed in transfected cells; host or cells: COS-7 (monkey kidney-derived cell line)
Description: PPARγ activation effect/modulator activity, GAL4-PPARγ luciferase reporter assay in COS-7 cells. The format is cell-based. The conditions noted are these: for Emax: COS-7, maximum luciferase activity, positive control rosiglitazone = 100%, DMSO control = 0%. How it is done: A test was carried out according to the reporter assay method with reference to a report by Kliewer et al. (Journal of Biological Chemistry, 1995, Vol. 270 (22), p. 12953-12956) as a method for measuring the ability of a compound to activate PPARγ (hereinafter PPARγ activation effect/modulator activity). Commercially available reagents and kits were used according to the attached instructions. The details will be shown below. The ligand-binding domain of human PPARγ (corresponding to about 300 amino acids at the carboxy end) was bound to the DNA-binding domain of the yeast transcription factor GAL4 (corresponding to 147 amino acids at the amino end) with reference to the report by Kliewer et al. to prepare a gene expressing a GAL4-PPARγ receptor. The plasmid pM-PPARγ obtained by the above operation includes the nucleotide sequence represented by SEQ ID NO: 4 of the Sequence Listing and encodes an amino acid sequence represented by SEQ ID NO: 5 of the Sequence Listing containing amino acids 1 to 147 of the yeast transcription factor GAL4 at the amino end and containing amino acids 175 to 475 of human PPARγ and a stop codon at the carboxy end. The plasmid is a gene that can express a GAL4-PPARγ chimeric receptor in mammalian cells. The previously acquired plasmid pM-PPARγ and the plasmid pFR-Luc purchased from Stratagene Cloning Systems, Inc. were dissolved in deionised water at a concentration of 1 mg/mL each. […] COS-7 cells were transfected with 4.8 micrograms per flask of the plasmid pM-PPARγ and 19.2 μg per flask of the plasmid pFR-Luc using Lipofectamine 2000 transfection reagent (manufactured by Invitrogen Corporation), and the cells were cultured overnight. […] The test compound was dissolved in dimethyl sulfoxide at a concentration of 4 mM. The solution was serially diluted 3.3-fold with dimethyl sulfoxide to prepare solutions of the compound at concentrations up to 400 nM. Dimethyl sulfoxide was prepared for the control group. Rosiglitazone dissolved in dimethyl sulfoxide at a concentration of 4 mM was prepared for the positive control group. They were diluted 20-fold with the medium, and 5 μL of the dilution was added to the wells in which the cells were grown. […] After the addition, the cells were cultured overnight. On the following day, the medium was removed, and Luc Lite (manufactured by PerkinElmer Inc.) was prepared according to the attached document and added at 50 microliters per well. […] The amount of luminescence in each well was measured as luciferase activity using Analyst (Molecular Devices) for 0.5 second. A dose-dependent curve was drawn.

pEC50: −log10 of the molar value.

As usually defined, the inhibition in vivo is the share of the control response that was lost under treatment. Usually pEC50 stands for the EC50 on a negative log10 scale, so that one unit is a factor of ten. High values mean a low EC50, low ones a high EC50. A word on the Emax: it is the size of the effect at its maximum, as opposed to the concentration needed.

T1 sequence (P37231 with tags, fused parts or gaps): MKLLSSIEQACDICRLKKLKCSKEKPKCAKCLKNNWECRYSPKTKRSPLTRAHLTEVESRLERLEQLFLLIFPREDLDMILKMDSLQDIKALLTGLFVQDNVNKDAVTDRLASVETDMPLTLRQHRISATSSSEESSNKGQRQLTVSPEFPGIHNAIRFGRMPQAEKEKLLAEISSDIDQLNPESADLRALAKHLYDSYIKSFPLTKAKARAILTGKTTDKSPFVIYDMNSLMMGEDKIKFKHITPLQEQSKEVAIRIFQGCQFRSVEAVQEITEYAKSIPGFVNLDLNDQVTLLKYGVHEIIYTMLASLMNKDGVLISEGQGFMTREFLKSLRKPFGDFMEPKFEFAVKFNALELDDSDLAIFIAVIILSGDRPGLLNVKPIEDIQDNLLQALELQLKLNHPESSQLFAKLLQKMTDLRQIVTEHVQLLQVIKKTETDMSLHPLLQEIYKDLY

As to `COc1cc(Oc2ccc3nc(COc4cccc(C(=O)O)c4)n(C)c3c2)cc(C)n1` [Example 17, 3-({6-[(2-Methoxy-6-methylpyridin-4-yl)oxy]-1-methyl-1H-benzimidazol-2-yl}methoxy)benzoic acid], the inhibition in vivo at 0.03 % in diet in the experiment on KK mice is 36%.
As to `CCc1cccnc1Oc1ccc2nc(COc3cccc(C(=O)O)c3)n(C)c2c1` [Example 2, 3-({6-[(3-Ethylpyridin-2-yl)oxy]-1-methyl-1H-benzimidazol-2-yl}methoxy)benzoic acid], in the experiment on KK mice, the inhibition in vivo at 0.03 % in diet stood at 31%. In experiment [1], this compound had a pEC50 of 6.74 and an Emax of 73%.
Take `Cc1cc(C)c(Oc2ccc3nc(COc4cccc(C(=O)O)c4)n(C)c3c2)nc1C` [Example 15, 3-({1-Methyl-6-[(3,5,6-trimethylpyridin-2-yl)oxy]-1H-benzimidazol-2-yl}methoxy)benzoic acid]: the “Glucose lowering rate (%)” value in the experiment with KK mice was found to be 30%.
Same read-out and setting: in the case of `Cc1cnc(Oc2ccc3nc(COc4cccc(C(=O)O)c4)n(C)c3c2)c(F)c1` [Example 9, 3-({6-[(3-Fluoro-5-methylpyridin-2-yl)oxy]-1-methyl-1H-benzimidazol-2-yl}methoxy)benzoic acid] it was 41%.
`Cn1c(COc2cccc(C(=O)O)c2)nc2ccc(Oc3ncc(Cl)cc3F)cc21` [Example 5, 3-({6-[(5-Chloro-3-fluoropyridin-2-yl)oxy]-1-methyl-1H-benzimidazol-2-yl}methoxy)benzoic acid]: the inhibition in vivo at 0.03 % in diet in the experiment with KK mice was 34%. In experiment [1], this compound gave a pEC50 of 7.62 and a maximal response (Emax) of 79%.
Take `Cn1c(COc2cccc(C(=O)O)c2)nc2ccc(Oc3cccnc3)cc21` [Compound A, reference compound]: the inhibition in vivo at 0.03 % in diet in the experiment with KK mice was found to be 20%.
As to `COc1cc(Oc2ccc3nc(COc4cccc(C(=O)O)c4)n(C)c3c2)ccn1` [Example 16, 3-({6-[(2-Methoxypyridin-4-yl)oxy]-1-methyl-1H-benzimidazol-2-yl}methoxy)benzoic acid], the inhibition in vivo at 0.03 % in diet in the experiment with KK mice was 17%.
Turning to `Cc1cnc(Oc2ccc3nc(COc4cccc(C(=O)O)c4)n(C)c3c2)c(C)c1` [Example 10, 3-({6-[(3,5-Dimethylpyridin-2-yl)oxy]-1-methyl-1H-benzimidazol-2-yl}methoxy)benzoic acid], in the experiment on KK mice, the “Glucose lowering rate (%)” value stood at 37%.
In the case of `Cc1ccc(Oc2ccc3nc(COc4cccc(C(=O)O)c4)n(C)c3c2)nc1C` [Example 4, 3-({6-[(5,6-Dimethylpyridin-2-yl)oxy]-1-methyl-1H-benzimidazol-2-yl}methoxy)benzoic acid], in the experiment with KK mice, the “Glucose lowering rate (%)” value is recorded as 28%.
The same measure, in the same setting: to `Cc1cc(F)cnc1Oc1ccc2nc(COc3cccc(C(=O)O)c3)n(C)c2c1` [Example 8, 3-({6-[(5-Fluoro-3-methylpyridin-2-yl)oxy]-1-methyl-1H-benzimidazol-2-yl}methoxy)benzoic acid] belongs 33%.
